Assay results from ChEMBL document CHEMBL1201862, “PubChem BioAssay data set” (2004).
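Cultured in 96-well plates, cells were exposed to test compound for 48 hours across five concentrations. GI50 is the concentration that inhibits growth by half.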 Activity calls are given as the source filed them. Rule as the data show it: active = GI50 up to about 1.1 µM and inactive = higher.

Tests used:
Experiment in all cases: inhibition of tumour cell growth, NCI panel, 48 h
[1] = test system: OVCAR-8
[2] = test system: OVCAR-3
[3] = test system: MDA-MB-231
[4] = test system: MDA-N
[5] = test system: EKVX
[6] = test system: HCT-15
[7] = test system: A498
[8] = test system: SR
[9] = test system: NCI-H522
[10] = test system: OVCAR-5
[11] = test system: UO-31
[12] = test system: UACC-257
[13] = test system: M14
[14] = test system: COLO 205
[15] = test system: HOP-62
[16] = test system: NCI-H226
[17] = test system: K562
[18] = test system: MDA-MB-435
[19] = test system: DU-145
[20] = test system: A549

| SMILES | GI50 [1] | GI50 [2] | GI50 [3] | GI50 [4] | GI50 [5] | GI50 [6] | GI50 [7] | GI50 [8] | GI50 [9] | GI50 [10] | GI50 [11] | GI50 [12] | GI50 [13] | GI50 [14] | GI50 [15] | GI50 [16] | GI50 [17] | GI50 [18] | GI50 [19] | GI50 [20] |
| --- | --- | --- | --- | --- | --- | --- | --- | --- | --- | --- | --- | --- | --- | --- | --- | --- | --- | --- | --- | --- |
| CCN(CC)C(=S)SC1CCOP(=O)(N(CCCl)CCCl)N1C (configuration not stated) | 29.9 µM (inactive) | > 100 µM (inactive) | > 100 µM (inactive) | > 100 µM (inactive) | 57.1 µM (inactive) | 28.2 µM | 44.9 µM (inactive) | 0.185 µM (active) | 0.43 µM (active) | 12.1 µM (inactive) | 67.8 µM (inactive) | > 40.9 µM (inactive) | > 39.7 µM (inactive) | 0.553 µM (active) | > 95.1 µM (inactive) | 48.3 µM (inactive) | 0.399 µM (active) | > 100 µM (inactive) | > 100 µM (inactive) |  |
| Cc1cc(NC(=O)NC(=O)c2ccccc2NC(=O)C(C)N)ccc1Oc1ncc(Br)cn1 (configuration not stated) | 0.141 µM (active) | 0.0196 µM (active) | 0.143 µM (active) | 0.0202 µM (active) | 0.335 µM (active) | 0.31 µM | 0.025 µM (active) | 0.111 µM (active) | 0.0301 µM (active) | 1.09 µM (active) | 0.216 µM (active) | 0.547 µM (active) | 0.13 µM (active) | 0.0719 µM (active) | 0.0306 µM (active) | 0.0703 µM (active) | 0.136 µM (active) | 0.0254 µM (active) | 0.136 µM (active) | 0.153 µM (active) |
| CN1CC[C@]23c4c5ccc(O)c4O[C@H]2C(O)CC[C@@]3(O)[C@H]1C5 (some centres not stated) | > 100 µM (inactive) | > 100 µM (inactive) | > 100 µM (inactive) | > 100 µM (inactive) | > 100 µM (inactive) | > 100 µM | > 100 µM (inactive) | > 100 µM (inactive) | > 100 µM (inactive) | > 100 µM (inactive) | > 100 µM (inactive) | > 100 µM (inactive) | > 100 µM (inactive) | > 100 µM (inactive) | > 100 µM (inactive) | > 100 µM (inactive) |  | > 100 µM (inactive) | > 100 µM (inactive) | > 100 µM (inactive) |
| C/C=C(\N=C=S)C(=O)OC1C(COC(C)=O)OC([C@]2(O)CC(=O)C(N)=C(C(=O)O)C2=O)C(O)C1OC1CC(OC)C(O)([C@@H](C)OC(=O)[C@@H](C)CC)C(C)O1 (some centres not stated) | 5.65 µM (inactive) | 15.8 µM (inactive) | 19.6 µM (inactive) | 13.2 µM (inactive) | 12.6 µM (inactive) | 16 µM | 35 µM (inactive) | 4.39 µM (inactive) | 2.17 µM (inactive) | 20.7 µM (inactive) | 18.2 µM (inactive) | 15.4 µM (inactive) | 16 µM (inactive) | 4.71 µM (inactive) | 22.1 µM (inactive) | 19.4 µM (inactive) | 2.11 µM (inactive) | 17.3 µM (inactive) | 18.9 µM (inactive) | 33.7 µM (inactive) |
| CCOC(=O)/C=C/[C@H](O[Si](c1ccccc1)(c1ccccc1)c1ccccc1)C(C)(C)C | > 31.6 µM (inactive) | > 31.6 µM (inactive) | > 31.6 µM (inactive) | > 31.6 µM (inactive) | > 31.6 µM (inactive) | > 31.6 µM | > 31.6 µM (inactive) | > 10 µM (inactive) | > 31.5 µM (inactive) | > 10 µM (inactive) | > 31.6 µM (inactive) | 11.1 µM (inactive) | 73.8 µM (inactive) | > 31.6 µM (inactive) | > 31.6 µM (inactive) | > 31.6 µM (inactive) | 7.78 µM (inactive) | > 31.6 µM (inactive) | > 31.6 µM (inactive) | 23.3 µM (inactive) |
| CCOC(=O)CCc1cc(=O)oc2cc(O)cc(O)c12 | > 100 µM (inactive) | > 100 µM (inactive) | > 100 µM (inactive) | > 100 µM (inactive) | 62.5 µM (inactive) | > 100 µM | 50.1 µM (inactive) | > 100 µM (inactive) | > 100 µM (inactive) | > 100 µM (inactive) | > 100 µM (inactive) | > 100 µM (inactive) | > 100 µM (inactive) | > 100 µM (inactive) | > 100 µM (inactive) | > 100 µM (inactive) | > 100 µM (inactive) | > 100 µM (inactive) | > 100 µM (inactive) | > 100 µM (inactive) |
| COc1ccc(OC)c(-c2nc3n(c2/C=C2/C(=O)Nc4ccccc42)CCS3)c1 | 68.1 µM (inactive) | 36.1 µM (inactive) | 25.6 µM (inactive) | 18.2 µM (inactive) | > 100 µM (inactive) | 42.3 µM | 48.5 µM (inactive) | 32.8 µM (inactive) | 34 µM (inactive) | > 100 µM (inactive) | 41.4 µM (inactive) | 63.1 µM (inactive) | 37.4 µM (inactive) | 39.5 µM (inactive) | 58.6 µM (inactive) | > 100 µM (inactive) | 37.4 µM (inactive) | 17.5 µM (inactive) | 64.4 µM (inactive) | 63.7 µM (inactive) |
| C=C(C)C(=O)/N=C(\N)NC#N | 31.4 µM (inactive) | 68.7 µM (inactive) | 48.2 µM (inactive) | 39.4 µM (inactive) | > 54 µM (inactive) | 44.6 µM | > 46.5 µM (inactive) | 28.1 µM (inactive) | 5.81 µM (inactive) | 168 µM (inactive) | > 62.7 µM (inactive) | 29.9 µM (inactive) | 45.3 µM (inactive) | 49.2 µM (inactive) | > 63.1 µM (inactive) | 145 µM (inactive) | 21.8 µM (inactive) | 131 µM (inactive) | 70.5 µM (inactive) | 168 µM (inactive) |
| CC1C(=O)CC[C@@]2(C)C(=O)CCCC12O (some centres not stated) |  | > 100 µM (inactive) | > 100 µM (inactive) | > 100 µM (inactive) | > 100 µM (inactive) | > 100 µM | > 100 µM (inactive) | > 100 µM (inactive) | > 100 µM (inactive) | > 100 µM (inactive) | > 100 µM (inactive) | > 100 µM (inactive) | > 100 µM (inactive) | > 100 µM (inactive) | > 100 µM (inactive) | > 100 µM (inactive) | > 100 µM (inactive) | > 100 µM (inactive) | > 100 µM (inactive) | > 100 µM (inactive) |
| COC1/C=C\C=C(/C)C(=O)Nc2cc3nc4ccc(Br)cc4oc-3c(c2=O)CC(C)CC(OC)C(O)C(C)/C=C(\C)C1OC(N)=O (configuration not stated) | 0.09 µM (active) | 0.082 µM (active) | 0.00849 µM (active) | 0.00451 µM (active) | 3.17 µM (inactive) | 0.142 µM | 13.5 µM (inactive) | 0.0116 µM (active) | 0.01 µM (active) | 1.64 µM (inactive) | 0.12 µM (active) | 0.0556 µM (active) | 0.0453 µM (active) | 0.01 µM (active) | 4.1 µM (inactive) | 1.75 µM (inactive) | 0.01 µM (active) | 0.00389 µM (active) | 0.0458 µM (active) | 3.61 µM (inactive) |
| CCN(CC)c1ccc(/C=C/C2=NN(c3cccc(S(=O)(=O)O)c3)C3(C2)C(Cl)C(=O)N3c2nc3ccccc3s2)cc1 (configuration not stated) | 8.99 µM (inactive) | 4.11 µM (inactive) | 7.8 µM (inactive) | 12.4 µM (inactive) | 8.79 µM (inactive) | 7.03 µM | 12 µM (inactive) | 2.47 µM (inactive) | 1.72 µM (inactive) | 23.1 µM (inactive) | 1.72 µM (inactive) | 7.24 µM (inactive) | 12.4 µM (inactive) | 14.1 µM (inactive) | 7.36 µM (inactive) | 13.1 µM (inactive) | 5.55 µM (inactive) | 5.87 µM (inactive) | 12.6 µM (inactive) | 11.2 µM (inactive) |
| CC(=O)OCC1OC(n2c3c(c(-c4cccc5ccccc45)c(C#N)c2=S)CCCC3)C(OC(C)=O)C(OC(C)=O)C1OC(C)=O (configuration not stated) | > 100 µM (inactive) | > 100 µM (inactive) | > 100 µM (inactive) | > 100 µM (inactive) | 25.8 µM (inactive) | > 100 µM | > 100 µM (inactive) | > 100 µM (inactive) | > 100 µM (inactive) | > 100 µM (inactive) | 31.3 µM (inactive) | > 100 µM (inactive) | 66.7 µM (inactive) | > 100 µM (inactive) | > 100 µM (inactive) | > 100 µM (inactive) | > 100 µM (inactive) | > 100 µM (inactive) | > 100 µM (inactive) | > 100 µM (inactive) |
| CC1=C(C#N)C2C(=C(N)Oc3ccccc32)C(N)=N1 (configuration not stated) | 25.1 µM (inactive) | 44.8 µM (inactive) | 14 µM (inactive) | 21.8 µM (inactive) | 25.4 µM (inactive) | 17.9 µM | 24 µM (inactive) | 40.8 µM (inactive) | 15.4 µM (inactive) | 24.8 µM (inactive) | 17.4 µM (inactive) | 20.1 µM (inactive) | 20.7 µM (inactive) | 26.1 µM (inactive) | 35.6 µM (inactive) | 12.2 µM (inactive) | 29.7 µM (inactive) | 27.7 µM (inactive) | 21.1 µM (inactive) | 38.3 µM (inactive) |
| COc1cc2c(cc1OCCCN1C(=O)c3cccc4cccc(c34)C1=O)N=C[C@@H]1CCCN1C2=O | 36.6 µM (inactive) | 32.8 µM (inactive) | > 55.8 µM (inactive) | 37.2 µM (inactive) | > 100 µM (inactive) | 23.1 µM | > 100 µM (inactive) | 1.26 µM (inactive) | 14.3 µM (inactive) | > 89.1 µM (inactive) | 22.5 µM (inactive) | 40.1 µM (inactive) | 36.2 µM (inactive) | 18.5 µM (inactive) | > 86.7 µM (inactive) | 34.4 µM (inactive) | 22.5 µM (inactive) | 40.1 µM (inactive) | 46.1 µM (inactive) | > 100 µM (inactive) |
